Data on six molecules can be found in paper PMC10537604, “Development and Assessment of 1,5–Diarylpyrazole/Oxime Hybrids Targeting EGFR and JNK–2 as Antiproliferative Agents: A Comprehensive Study through Synthesis, Molecular Docking, and Evaluation” (Molecules, 2023).

pIC50: −log10 of the molar value. Where two headings read alike, the source gives them in different places.

Data set [1] relates to human pancreatic cancer cell line SUIT-2. Briefly: WST-8 antiproliferative assay, SUIT-2. The data set is classed as cell-based. The method, then: (§1) Compounds 7a–j, 8a–j, 9a–c, and 10a–c were evaluated for in vitro anticancer activities against five different cancer cell lines, namely, human colorectal adenocarcinoma cell lines DLD-1, human cervical cancer cell line Hela, human pancreatic cancer cell line SUIT-2, human myelogenous leukemia cell line K562, and human hepatocellular carcinoma cell line HepG2 using WST-8 assay at concentrations of 100 µM to investigate the growth inhibition percent (GI%) of each compound using daunorubicin as a reference drug. […]. […] So, as a conclusion on the SAR study of those compounds as antiproliferative agents, the oxime moiety potentiated the anticancer activity and electron donating groups on R1 and R2 played an important role on this activity. Moreover, the sulfamoyl moiety on R3 seems to play a potential role in the activity of the prepared compounds (Table 1).
(§2) All selected compounds and daunorubicin were recorded as the minimum concentration required to inhibit half cell growth (IC50) and the results are listed in Table 2.
(§3) Evaluation of anticancer activity was performed according to the standard water-soluble tetrazolium-8 (WST-8) assay at the Faculty of Engineering, Yamagata University, Yonezawa, Japan, using an MTP-310 absorbance microplate reader. The EGFR inhibitory assay was carried out at the Faculty of Engineering, Yamagata University, Yonezawa, Japan, according to the protocol enzyme linked immunosorbent assay (ELISA) kits (Douset sandwich ELISA test, recombinant mouse EGFR). The JNK-2 inhibitory assay was performed at the Faculty of Engineering, Yamagata University, Yonezawa, Japan, according to the protocol of enzyme-linked immunosorbent assay (ELISA), the assay was carried out using the JNK-2 kit (Simple Step ELISA, pT183/Y185, Abcam Company, Cambridge, CB2 0AX, UK). Apoptosis and cell cycle analysis was performed at Faculty of medicine, Yamagata University, Yamagata, Japan, using BD FACS melody. Molecular docking was performed at the Nano Medical Engineering Laboratory, RIKEN Cluster for Pioneering Researchers, RIEKN, Japan, using ICM-Pro 3.8 software (MolSoft L.L.C., San Diego, CA, USA).
(§4) According to the standard water-soluble tetrazolium-8 (WST-8) assay, the current synthesized compounds have been tested for their anticancer activities against different five cancer cell lines; DLD-1, Hela, K562, SUIT-2, and HepG2 and daunorubicin was used as reference drug by the WST-8 assay. The five cells were maintained in a suspension culture, (Dulbecco’s modified eagle medium (DMEM) for SUIT-2, Hela, and HepG2 or PRIM for K562 and DLD), supplemented with 5% FBS (Fetal Bovine Serum) containing 1% of a penicillin-streptomycin (1:1) mixture. A 100 μL aliquot of cells (10,000 cells/mL) was added to a 96 well plate and incubated for 24 h at 37 °C in a humidified incubator containing 5% CO2 in the air. After 24 h, a 10 μL aliquot of test compound (concentrations varying in the range of 10–150 µM) was added to each of the 96 wells and incubated for 24 h. Then A 10 μL WST-8 solution (mixture of WST-8 and 1-methoxy PMS) was added to each well and the incubation continued for 3 h. The visible absorbance at 450 nm and 630 nm as the reference wavelength of each well was quantified using an MTP-310 absorbance microplate reader. Daunorubicin was used as a positive control. The results of cytotoxicity were recorded as growth inhibition percentages and as IC50 values.

Data set [2] concerns human colorectal adenocarcinoma cell line DLD-1. Briefly: WST-8 antiproliferative assay, DLD-1. The data set is classed as cell-based. Here is the method: as §1, §2, §3, §4
A general note: Formazan colour is commonly taken as a measure of viable cells.

Data set [3] relates to human pancreatic cancer cell line SUIT-2. The data set is described as follows: WST-8 antiproliferative assay, SUIT-2. The data set is classed as cell-based. Particulars: WST-8 assay, six concentrations 1-100 µM.
Data set [4] deals with human hepatocellular carcinoma cell line HepG2. The data set is described as follows: WST-8 antiproliferative assay, HepG2. Conditions: WST-8 assay, six concentrations 1-100 µM. The data set is classed as cell-based.
In data set [5] the test system is human colorectal adenocarcinoma cell line DLD-1. The data set is described as follows: WST-8 antiproliferative assay, DLD-1. Particulars: WST-8 assay, six concentrations 1-100 µM. The data set is classed as cell-based.
Data set [6] concerns human hepatocellular carcinoma cell line HepG2. Briefly: WST-8 antiproliferative assay, HepG2. The data set is classed as cell-based. Here is the method: as §1, §2, §3, §4
The subject of data set [7] is human myelogenous leukemia cell line K562. The data set is described as follows: WST-8 antiproliferative assay, K562. The data set is classed as cell-based. Here is the method: as §1, §2, §3
as §4, with “After 24 h, a 10 μL aliquot of test compound (concentrations varying in the range of 10–150 µM) was added to each of the 96 wells and incubated for 24 h.” left out

The test system of data set [8] is human cervical cancer cell line Hela. Briefly: WST-8 antiproliferative assay, Hela. Particulars: for inhibition at 100 µM: read-out: Growth Inhibition (GI%) Hela; for pIC50: read-out: IC50 Hela. The data set is classed as cell-based. Here is the method: as §1, §2, §3
as §4, with “After 24 h, a 10 μL aliquot of test compound (concentrations varying in the range of 10–150 µM) was added to each of the 96 wells and incubated for 24 h.” left out

Data set [9] has as its target EGFR tyrosine kinase. More on the design: method as in doi:10.21608/jabps.2021.77469.1129, PMID 24731281. Conditions: literature values ref [4],[29]; read-out: EGFR tyrosine kinase inhibitory activity IC50; cited from earlier work.
In data set [10] the test system is PC12 (rat adrenal-derived pheochromocytoma cells). The data set is described as follows: WST-8 cytotoxicity towards normal cell line PC12. The data set is classed as cell-based. Particulars: Rattus norvegicus, PC-12, read-out: percentage growth inhibition PC12. Here is the method:
The evaluation of normal cell viability is fundamental in analyzing the efficacy of target compounds and is often used in conjunction with cytotoxicity tests to help understand how target compound toxicity affects normal cell health. […] A 100 μL aliquot of cells (10,000 cells/mL) was added to a 96 well plate and incubated for 24 h at 37 °C in a humidified incubator containing 5% CO2 in the air. […] Then, a 10 μL WST-8 solution (mixture of WST-8 and 1-methoxy PMS) was added to each well and the incubation continued for 3 h. The visible absorbance at 450 nm and 630 nm as the reference wavelength of each well was quantified using an MTP-310 absorbance microplate reader. Daunorubicin was used as a positive control. The results of cytotoxicity were recorded as growth inhibition percentages and as IC50 values.

The mark [11] stands for this setting: SUIT-2, 100 µM, WST-8 assay, read-out: Growth Inhibition (GI%) SUIT-2.
Setting [12] is: DLD-1, 100 µM, WST-8 assay, read-out: Growth Inhibition (GI%) DLD-1.
Where [13] appears, read: HepG2, 100 µM, WST-8 assay, read-out: Growth Inhibition (GI%) HepG2.
[14] abbreviates: Homo sapiens, K562, 100 µM, WST-8 assay, read-out: Growth Inhibition (GI%) K562.
[15] abbreviates: WST-8 assay, six concentrations 1-100 µM.

Take `COc1cc(C(C)=O)ccc1OC(=O)c1cc(-c2ccc(C)cc2)n(-c2ccccc2)n1` [Compound 7b, 4–Acetyl–2–methoxyphenyl–1–phenyl 5–p–tolyl–1H–pyrazole–3–carboxylate]: the melting point – broadly, the temperature of the solid-liquid transition – lay in the range of 110 to 112 °C. Moreover, the inhibition (usually the relative decrease from the control value, in per cent) at 100 µM in data set [1] (setting [11]) stood at 103%. Besides, the inhibition at 100 µM in [2] (setting [12]) came out at 81%. Besides, the pIC50 in data set [3] is 4.35. The molecule also showed a pIC50 in [4] of 4.35. For the same molecule, in [5], the pIC50 was 4.89. The inhibition at 100 µM in data set [6] (setting [13]) turned out to be 85%. Further, in data set [7] (setting [14]), the inhibition at 100 µM worked out at 70%. Moreover, the inhibition at 100 µM in [8] (100 µM, WST-8 assay) amounted to 83%. Further, the pIC50 in data set [8] (setting [15]) is 4.26.
As for `COc1cc(C(C)=O)ccc1OC(=O)c1cc(-c2ccc(Cl)cc2)n(-c2ccccc2)n1` [Compound 7d, 4–Acetyl–2–methoxyphenyl–5–(4–chlorophenyl) 1–phenyl–1H–pyrazole–3–carboxylate], the melting point lay within 85 to 87 °C. Besides, the inhibition at 100 µM in data set [1] (setting [11]) was determined as 104%. Besides, the inhibition at 100 µM in data set [2] (setting [12]) stood at 72%. The same molecule had a pIC50 in [3] of 4.37. The same molecule had a pIC50 in [5] of 4.09. The inhibition at 100 µM in data set [6] (setting [13]) turned out to be 31%. Besides, in data set [7] (setting [14]), the inhibition at 100 µM stood at 50%. In data set [8] (100 µM, WST-8 assay), the inhibition at 100 µM worked out at 104%. The pIC50 in data set [8] (setting [15]) is 4.82.
`COc1cc(C(C)=O)ccc1OC(=O)c1cc(-c2ccc(C)cc2)n(-c2ccc(S(N)(=O)=O)cc2)n1` [Compound 7g, 4–Acetyl–2–methoxyphenyl–1–(4–sulfamoylphenyl) 5–p–tolyl–1H–pyrazole–3–carboxylate] had a melting point of 83 to 85 °C. For the same molecule, in [1] (setting [11]), the inhibition at 100 µM turned out to be 92%. Moreover, the inhibition at 100 µM in data set [2] (setting [12]) came out at 96.7%. The molecule further gave a pIC50 in data set [3] of 4.51. Moreover, the pIC50 in [5] is 4.89. Further, in data set [6] (setting [13]), the inhibition at 100 µM is 66%. Besides, the inhibition at 100 µM in [7] (setting [14]) was 77%. For the same molecule, the inhibition at 100 µM in data set [8] (100 µM, WST-8 assay) amounted to 30%.
As to `COc1ccc(-c2cc(-c3ccc(C)c(C)c3)nn2C(N)=S)cc1` [Compound I], the pIC50 in data set [9] is 7.15.
Regarding `COc1cccc2c1C(=O)c1c(O)c3c(c(O)c1C2=O)C[C@@](O)(C(C)=O)C[C@@H]3O[C@H]1C[C@H](N)[C@H](O)[C@H](C)O1` [Daunorubicin, daunorubicin, reference compound], the inhibition at 100 µM turned out to be 92% in [1] (SUIT-2, read-out: Growth Inhibition (GI%) SUIT-2); 113% in [10]; 82.5% in [2] (DLD-1, read-out: Growth Inhibition (GI%) DLD-1); 100% in [6] (HepG2, read-out: Growth Inhibition (GI%) HepG2); 100% in [7] (Homo sapiens, K562, read-out: Growth Inhibition (GI%) K562); 100% in data set [8]. In addition, the pIC50 in [1] (SUIT-2, read-out: IC50 SUIT-2) is 5.05; in data set [2] (DLD-1, read-out: IC50 DLD-1) it was 4.52; in data set [6] (HepG2, read-out: IC50 HepG2) it was 4.66; in [7] (Homo sapiens, K562, read-out: IC50 K562, WST-8 assay, six concentrations 1-100 µM), 4.89; in data set [7] (read-out: IC50 K562, WST-8 assay, six concentrations 1-100 µM), 4.88; in data set [8] it was 7.01. The inhibition at 1 µM in data set [10] was 81%. In addition, the inhibition at 50 µM in data set [10] was found to be 107%.
As to `Cc1ccc(-c2cc(-c3ccc4ccccc4c3)n(C3=NC(=O)CS3)n2)cc1C` [II], the pIC50 in data set [9] was 7.22.
